{"source": "paper PMC11013252", "about": "“Exploration of the Antibacterial and Anti-Inflammatory Activity of a Novel Antimicrobial Peptide Brevinin-1BW” (Molecules, 2024)", "key": {"[1]": {"test_system": "S. saprophytics (ATCCBAA750)", "test": "microbe, parasite or virus in culture", "format": "cell-based, Staphylococcus saprophyticus", "conditions": "ATCCBAA750, 18 h", "description": "(§1) The minimum inhibitory concentration (MIC) of the Brevinin-1BW was measured in 96-well microtiter plates according to the Clinical and Laboratory Standards Institute (CLSI). The activated strains were treated with Mueller Hinton Agar (MHA) solid medium. Single colonies were picked and expanded to the logarithmic growth phase, and the solution was diluted to 2 × 10^6 CFU/mL using the McFarland turbidity standard. The MIC was determined with the two-fold dilution method. Briefly, 50 μL of Mueller Hinton (MH) medium was added to a 96-well plate in advance. Then, 50 μL of AMP solution was added to the first well, and 50 μL was pipetted into the next well after mixing using a row gun, while 50 μL was discarded from the last well. Final concentrations of Brevinin-1BW were 100, 50, 25, 12.5, 6.25, and 3.125 μg/mL. A 50 μL volume of the diluted bacterial solution was added, and the final concentration of the bacterial solution was 1 × 10^6 CFU/mL. This was then placed into a 37 °C incubator for 18 h until the next day to observe the degree of turbidity of the 96-well plate and measure the absorbance of the wells at 600 nm with a multifunctional microplate reader (SpectraMax iD5, Molecular Devices, Sunnyvale, CA, USA). The absence of turbidity and the measured concentration of absorbance being less than the opposing group was taken as the MIC. The positive control used ampicillin at the same final concentration as Brevinin-1BW, the negative control used 50 μL of MH medium mixed with 50 μL of 2 × 10^6 CFU/mL bacterial solution, and the blank contained only 100 μL of MH medium. Three replicate wells were set up for each experiment, and each experiment was repeated three times. The MIC and all concentrations above the MIC of bacterial solution coated on MHA solid medium were placed into 37 °C incubator incubation for 18 h. The lowest concentration resulting in no colony growth was taken as the minimum bactericidal concentration (MBC)."}, "[2]": {"test_system": "E. hormaechei (ATCC700323)", "test": "microbe, parasite or virus in culture", "format": "cell-based, Enterobacter hormaechei", "conditions": "ATCC700323, 18 h", "description": "as §1"}, "[3]": {"test_system": "K. pneumoniae (ATCC700603)", "test": "microbe, parasite or virus in culture", "format": "cell-based, Klebsiella pneumoniae", "conditions": "ATCC700603, 18 h", "description": "as §1"}, "[4]": {"test_system": "C. koseri (CI 1611SED223)", "test": "microbe, parasite or virus in culture", "format": "cell-based, Citrobacter koseri", "conditions": "18 h", "description": "as §1"}, "[5]": {"test_system": "S. aureus (ATCC 25923)", "format": "cell-based, Staphylococcus aureus", "conditions": "ATCC 25923, 1 h", "description": "The temperature, serum, and pH stability of antimicrobial peptide Brevinin-1BW was investigated. S. aureus (ATCC 25923) was used to determine its stability. The antimicrobial peptide solution was prepared and placed at −20 °C, 4 °C, 37 °C, 60 °C, and 100 °C for 1 h. The MIC was measured with 96-well plate method to detect the effect of temperature. […] The pH stability was achieved by inoculating S. aureus into MH medium and culturing them with shaking to reach the logarithmic growth phase. This was then diluted to 10^6 CFU/mL. Brevinin-1BW was incubated in PBS at various pH values, pH = 2 or 12, for 1 h at 37 °C. The minimal inhibitory concentrations (MIC) of the peptides were then determined. All the above experiments were repeated more than three times."}, "[6]": {"test_system": "A375", "format": "cell-based, human", "conditions": "24 h", "description": "(§2) Medium was prepared to contain 10% FBS (TransGen Biotech, China) and 1% penicillin-streptomycin (Biosharp, Guangzhou, China). A549, U-2OS, HePG2, HaCaT, HUVEC, and 293T cells were cultured in DMEM medium (Gibco, New York, NY, USA). A375, HCT116, Hela, and RAW264.7 cells were cultured in RPMI 1640 medium (Gibco, New York, NY, USA). The cytotoxicity of Brevinin-1BW was determined using the Cell Counting Kit-8 as follows: detached the cells from cell culture flasks with 0.25% trypsin, counted with a hemocytometer plate and then prepared into a cell suspension containing 5 × 10^3 cells/mL. Then, 90 μL of the cell suspension was inoculated into a 96-well plate and incubated at 37 °C in a 5% CO2-humidified atmosphere for 24 h. A 10 μL volume of the peptide was subsequently added to each well and co-incubated with the cells for 24 h. Then, 10 μL of CCK8 (Abbkine, Wuhan, China) was added to each well and incubated for a further 2 h. The absorbance of each well at 450 nm was measured using a multifunctional enzyme marker. […] Three replicate wells were set up for each experiment, and each experiment was repeated three times. The formula for calculating the cell viability is shown below."}, "[7]": {"test_system": "A549", "format": "cell-based, human", "conditions": "24 h", "description": "as §2"}, "[8]": {"test_system": "HCT116", "format": "cell-based, human", "conditions": "24 h", "description": "as §2"}, "[9]": {"test_system": "IL-1β mRNA", "test": "mRNA expression in LPS-treated RAW264.7 cells, real-time PCR", "format": "cell-based, mouse", "description": "(§3) RAW 264.7 mouse macrophages were cultured in DMEM medium (Gibco, New York, NY, USA). containing 10% FBS (TransGen Biotech, Beijing, China) and 1% penicillin-streptomycin (Biosharp, Guangzhou, China) and were seeded into 6-well plates at a cell density of 10^5 cells/mL. After cell adhesion, 1 μg/mL LPS (Solarbio, Beijing, China) and different concentrations of Brevinin-1BW (0, 1, 2, 3, and 4 μg/mL) were incubated for 24 h. Culture supernatants were collected, and the contents of TNFα, IL-6, and IL-1β were determined with enzyme-linked immunosorbent assay (BOSTER, Wuhan, China). All cells were washed twice with precooled PBS, total cellular RNA was extracted using the RNAsimple Total RNA Extraction kit (TIANGEN, Beijing, China), and total RNA concentration and purity were determined using a Thermo Fisher NanoDropOne nucleic acid protein spectrophotometer. HiScript II 1st Strand cDNA Synthesis Kit (Vazyme, Nanjing, China) synthesized cDNA, and we performed real-time PCR using Hieff® qPCR SYBR Green Master Mix (No Rox) (YEASEN, Shanghai, China). The primer sequences for Beta-actin (β-Actin), interleukins (IL-6, IL-1β), tumor necrosis factor (TNF-α), and nitric oxide synthase (iNOS) are shown in Table 6. Cells incubated without peptide and/or LPS were used as negative control. All experiments were repeated three times."}, "[10]": {"test_system": "IL-6 mRNA", "test": "mRNA expression in LPS-treated RAW264.7 cells, real-time PCR", "format": "cell-based, mouse", "description": "as §3"}, "[11]": {"test_system": "TNF-α mRNA", "test": "mRNA expression in LPS-treated RAW264.7 cells, real-time PCR", "format": "cell-based, mouse", "description": "as §3"}, "[12]": {"test_system": "iNOS mRNA", "test": "mRNA expression in LPS-treated RAW264.7 cells, real-time PCR", "format": "cell-based, mouse", "description": "as §3"}}, "note": "Where two headings read alike, the source gives them in different places. Positions of bridges follow the written chain, without caps; N, C: chain ends. Residues, ends and D or L forms follow the SMILES beside them."}
{"compound": "CC[C@H](C)[C@@H]1NC(=O)[C@H](CCCCN)NC(=O)[C@@H](NC(=O)[C@H](Cc2ccccc2)NC(=O)[C@@H](NC(=O)[C@@H](NC(=O)[C@@H]2CCCN2C(=O)[C@H](CC(C)C)NC(=O)[C@H](Cc2ccccc2)NC(=O)[C@H](CO)NC(=O)[C@H](C)NC(=O)[C@H](C)NC(=O)[C@H](CC(C)C)NC(=O)CNC(=O)[C@H](C)NC(=O)[C@H](CC(C)C)NC(=O)[C@H](CC(C)C)NC(=O)[C@@H]2CCCN2C(=O)[C@H](CC(C)C)NC(=O)[C@@H](N)Cc2ccccc2)[C@@H](C)O)[C@@H](C)CC)CSSC[C@@H](C(=O)O)NC(=O)[C@H](CCCCN)NC(=O)[C@H](CCCNC(=N)N)NC(=O)[C@H](CO)NC1=O", "note": "[Brevinin-1BW] (H-FLPLLAGLAASFLPTIFCKISRKC-OH; disulfide 18-24)", "values": [{"measurement": "MBC", "setting": "[1]", "value": 12.5, "unit": "µg/mL"}, {"measurement": "MIC", "setting": "[1]", "value": 6.25, "unit": "µg/mL"}, {"measurement": "MBC", "setting": "[2]", "value": ">100", "unit": "µg/mL"}, {"measurement": "MIC", "setting": "[2]", "value": 100, "unit": "µg/mL"}, {"measurement": "MBC", "setting": "[3]", "value": ">100", "unit": "µg/mL"}, {"measurement": "MIC", "setting": "[3]", "value": ">100", "unit": "µg/mL"}, {"measurement": "MBC", "setting": "[4]", "value": ">100", "unit": "µg/mL"}, {"measurement": "MIC", "setting": "[4]", "value": 50, "unit": "µg/mL"}, {"measurement": "MIC after temperature treatment", "setting": "[5]", "value": 6.25, "unit": "µg/mL"}, {"measurement": "MIC after pH treatment", "setting": "[5]; pH 2", "value": 6.25, "unit": "µg/mL"}, {"measurement": "MIC after pH treatment", "setting": "[5]; pH 12", "value": 6.25, "unit": "µg/mL"}, {"measurement": "CC50", "setting": "[6]", "value": "23.79 ± 0.80", "unit": "µg/mL"}, {"measurement": "CC50", "setting": "[7]", "value": "27.64 ± 0.41", "unit": "µg/mL"}, {"measurement": "CC50", "setting": "[8]", "value": "35.44 ± 0.47", "unit": "µg/mL"}, {"measurement": "decrease of IL-1β mRNA expression level", "setting": "[9]", "value": 95.5, "unit": "%"}, {"measurement": "decrease of IL-6 mRNA expression level", "setting": "[10]", "value": 93.72, "unit": "%"}, {"measurement": "decrease of TNF-α mRNA expression level", "setting": "[11]", "value": 86.94, "unit": "%"}, {"measurement": "decrease of iNOS mRNA expression level", "setting": "[12]", "value": 81.37, "unit": "%"}]}
